Measurements taken from ChEMBL document CHEMBL2429842, “Phthaloyl amino acids as anti-inflammatory and immunomodulatory prototypes” (Med Chem Res, 2013).
Active and inactive are the calls of the source. The calls are words filed in the database; no cut-off is given here.

What was measured:
HCT-8 = assay: Antiproliferative activity against human HCT8 cells at 25 ug/ml after 48 hrs by MTT assay; type: functional; details: HCT-8, 48 h
SF-295 = assay: Antiproliferative activity against human SF295 cells at 25 ug/ml after 48 hrs by MTT assay; type: functional; details: SF-295, 48 h
MDA-MB-435 = assay: Antiproliferative activity against human MDA-MB-435 cells at 25 ug/ml after 48 hrs by MTT assay; type: functional; details: MDA-MB-435, 48 h
[1] = Cytotoxicity against BALB/c mouse splenocytes assessed as cell viability after 24 hrs by [3H]-thymidine incorporation assay; type: cell-based, Splenocyte; design: concentration or dose not given beside the values; details: read-out: Activity
[2] = Cytotoxicity against BALB/c mouse splenocytes assessed as highest nontoxic concentration after 24 hrs by [3H]-thymidine incorporation assay; type: cell-based, Splenocyte; details: read-out: Activity
Splenocyte [3] = assay: Immunomodulatory activity in BALB/c mouse splenocytes assessed as inhibition of LPS-induced nitric oxide production at 25 ug/ml after 72 hrs by Griess method relative to control; type: functional
Mus musculus [4] = assay: Antiinflammatory activity in carrageenan-induced air pouch mouse model assessed as inhibition of leukocyte migration from blood circulation into air pouches at 100 mg/kg, po administered 1 hr before carrageenan challenge measured after 6 hrs relative to control; type: functional
Splenocyte [5] = assay: Immunomodulatory activity in BALB/c mouse splenocytes assessed as inhibition of LPS-induced nitric oxide production at 50 ug/ml after 72 hrs by Griess method relative to control; type: functional
[6] = test system: Peritoneal macrophage cell; assay: Immunomodulatory activity mouse peritoneal macrophages assessed as inhibition of LPS-induced TNFalpha production at 50 uM after 24 hrs by ELISA; type: functional, cell-based
[7] = test system: Peritoneal macrophage cell; assay: Immunomodulatory activity mouse peritoneal macrophages assessed as inhibition of LPS-induced IL-1beta production at 50 uM after 24 hrs by ELISA; type: functional, cell-based
Mus musculus [8] = assay: Immunomodulatory activity in carrageenan-induced air pouch mouse model assessed as reduction of nitric oxide production in air pouch at 10 mg/kg, po by Griess method; type: functional, organism-based; design: dose 10 mg/kg
Mus musculus [9] = assay: Antiinflammatory activity in carrageenan-induced air pouch mouse model assessed as inhibition of leukocyte migration from blood circulation into air pouches at 10 mg/kg, po administered 1 hr before carrageenan challenge measured after 6 hrs relative to control; type: functional

| SMILES | inhibition at 25 µg/mL (HCT-8) [%] | inhibition at 25 µg/mL (SF-295) [%] | inhibition at 25 µg/mL (MDA-MB-435) [%] | viability at 24 h [1] [%] | MNTC at 24 h [2] [µg/mL] | Activity (Splenocyte [3]) [µg/mL] | inhibition in vivo at 100 mg/kg (Mus musculus [4]) [%] | Activity (Splenocyte [5]) [µg/mL] | inhibition [6] | inhibition [7] | Activity (Mus musculus [8]) | inhibition in vivo at 10 mg/kg (Mus musculus [9]) [%] |
| --- | --- | --- | --- | --- | --- | --- | --- | --- | --- | --- | --- | --- |
| COc1cccc2c1C(=O)c1c(O)c3c(c(O)c1C2=O)C[C@@](O)(C(=O)CO)C[C@@H]3O[C@H]1C[C@H](N)[C@H](O)[C@H](C)O1 [DOXORUBICIN] | 97.1 | 81.4 | 94.6 | – | – | – | – | – | – | – | – | – |
| O=C(O)CCN1C(=O)c2ccccc2C1=O | 18.9 | 12.6 | -3.71 | 22.2 | 50 | 3.6 | 54.2 | 4.4 | – | – | – | – |
| O=C(O)CN1C(=O)c2ccccc2C1=O | -0.61 | 3.98 | -4.72 | 25.6 | 50 | 4.2 | 47.7 | 3.6 | Active | Active | – | – |
| O=C(O)[C@H](Cc1c[nH]c2ccccc12)N1C(=O)c2ccccc2C1=O | 10.4 | 24.5 | 13.8 | 27.6 | 50 | 1.3 | 43.8 | 2.1 | Active | Active | Active | – |
| O=C1CCC(N2C(=O)c3ccccc3C2=O)C(=O)N1 (centres undefined) [THALIDOMIDE] | – | – | – | – | > 100 | 3.6 | 72.1 | 3.6 | – | – | Active | 76.3 |
| CC[C@H](C)[C@@H](C(=O)O)N1C(=O)c2ccccc2C1=O | 15 | 20 | 14.9 | 26.1 | 12.5 | 3.1 | 67.5 | 2.3 | – | – | – | 64.7 |
| O=C(O)CC[C@@H](C(=O)O)N1C(=O)c2ccccc2C1=O | 6.52 | 14.4 | 12.9 | 8.75 | 50 | 2.9 | 61.7 | 3.4 | – | – | – | – |
| O=C(O)[C@H](Cc1ccccc1)N1C(=O)c2ccccc2C1=O | -7.23 | 13.5 | 11.7 | 21.5 | 25 | 2.3 | 64.2 | 0.7 | – | Active | – | – |
| CC(C)[C@@H](C(=O)O)N1C(=O)c2ccccc2C1=O | 4.28 | 2.74 | 7.82 | 24.7 | 25 | 6.4 | 57.8 | 2.7 | – | – | – | – |
| C[C@@H](C(=O)O)N1C(=O)c2ccccc2C1=O | 6.11 | 12.2 | 5.01 | – | > 100 | 2.1 | 38.4 | 1.5 | – | – | – | – |
